In patent EP1247803A2, “Indolinone compounds suitable for modulation of protein kinases” (Sugen, Inc., priority 1996, dated 1998):

How the values were obtained:
MET = MET biochemical kinase assay; design: species or system human; concentration or dose not given beside the values
Summary of the method: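 Lysate-derived MET, or chimeric receptors, is immobilised on plates through an antibody to the human MET cytoplasmic region. Compounds are added along with kinase buffer supplying ATP and divalent metal ions, and receptor autophosphorylation is quantified by anti-phosphotyrosine ELISA.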

FLK-1 receptor = target: T1, FLK-1 receptor (Mus musculus, UniProt P35918); experiment: FLK-1 ELISA (kinase activity of the FLK-1 receptor in FLK-1/NIH3T3 cells, VEGF stimulated); format: cell-based; design: concentration or dose not given beside the values
T1 construct: expressed in transfected cells; host or cells: NIH3T3 C7#3
T1 sequence (P35918 20-1345): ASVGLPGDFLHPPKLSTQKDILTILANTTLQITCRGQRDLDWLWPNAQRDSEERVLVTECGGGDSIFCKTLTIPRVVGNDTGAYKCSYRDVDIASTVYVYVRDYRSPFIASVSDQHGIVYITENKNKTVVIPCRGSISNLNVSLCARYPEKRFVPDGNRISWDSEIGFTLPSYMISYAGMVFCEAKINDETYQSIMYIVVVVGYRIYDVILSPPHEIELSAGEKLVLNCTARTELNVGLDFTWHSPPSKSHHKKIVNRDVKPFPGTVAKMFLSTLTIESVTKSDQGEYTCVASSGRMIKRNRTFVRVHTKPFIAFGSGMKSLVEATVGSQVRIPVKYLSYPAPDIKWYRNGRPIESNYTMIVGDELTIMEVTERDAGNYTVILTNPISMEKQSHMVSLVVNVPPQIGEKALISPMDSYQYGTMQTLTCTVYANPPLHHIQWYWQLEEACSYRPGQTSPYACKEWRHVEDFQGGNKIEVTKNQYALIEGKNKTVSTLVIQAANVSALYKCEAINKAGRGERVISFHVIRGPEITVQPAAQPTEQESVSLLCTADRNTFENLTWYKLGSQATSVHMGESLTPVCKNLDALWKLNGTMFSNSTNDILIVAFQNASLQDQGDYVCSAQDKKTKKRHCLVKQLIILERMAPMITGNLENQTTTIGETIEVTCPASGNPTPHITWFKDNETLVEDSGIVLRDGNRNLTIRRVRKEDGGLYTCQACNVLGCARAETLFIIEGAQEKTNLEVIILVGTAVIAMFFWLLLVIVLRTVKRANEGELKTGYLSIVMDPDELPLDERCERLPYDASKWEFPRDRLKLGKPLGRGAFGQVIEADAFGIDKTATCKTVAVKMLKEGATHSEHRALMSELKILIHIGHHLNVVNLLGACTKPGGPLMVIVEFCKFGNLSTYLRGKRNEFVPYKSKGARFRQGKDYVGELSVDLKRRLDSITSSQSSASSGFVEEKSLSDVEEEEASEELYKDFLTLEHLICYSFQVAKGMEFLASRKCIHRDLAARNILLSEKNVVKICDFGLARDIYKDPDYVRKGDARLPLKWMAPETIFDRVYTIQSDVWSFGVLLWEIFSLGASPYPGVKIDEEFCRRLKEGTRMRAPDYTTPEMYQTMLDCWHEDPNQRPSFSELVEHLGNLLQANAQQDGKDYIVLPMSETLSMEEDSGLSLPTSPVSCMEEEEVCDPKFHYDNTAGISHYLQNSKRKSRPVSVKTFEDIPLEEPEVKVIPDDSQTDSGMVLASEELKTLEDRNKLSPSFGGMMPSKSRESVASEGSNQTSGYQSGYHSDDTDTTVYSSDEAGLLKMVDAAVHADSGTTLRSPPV
Summary of the method: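 NIH3T3 C7#3 cells expressing FLK-1 were seeded at 25.000 cells/well, serum-starved overnight in 0.1% FBS, then treated with compound for two hours at 37°C (final DMSO 0.5%) before VEGF stimulation. Receptor was captured on anti-rabbit IgG-coated ELISA plates bearing affinity-purified anti-FLK-1 antiserum.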

Row | SMILES | Met Kinase % Inhibition (MET) | Fik Kinase %Inhibition (FLK-1 receptor)
1 | CNS(=O)(=O)c1ccc2c(c1)C(=Cc1ccc(Cl)c([N+](=O)[O-])c1)C(=O)N2 [10718/D08] | 2.3% | 3.9%
2 | CNS(=O)(=O)c1ccc2c(c1)C(=Cc1ccc([N+](=O)[O-])o1)C(=O)N2 [10718/D11] | 11.3% | 13.3%
3 | CC(C)c1cc(C=C2C(=O)Nc3ccc(CCCl)cc32)cc(C(C)C)c1Oc1ccccc1 [10732/G04] | 24.9% | 12.6%
4 | CC(C)c1cc(C=C2C(=O)Nc3ccc(S(=O)(=O)N4CCOCC4)cc32)cc(C(C)C)c1Oc1ccccc1 [10732/F04] | 57.2% | 16.2%
5 | CNS(=O)(=O)c1ccc2c(c1)C(=Cc1cc([N+](=O)[O-])ccc1O)C(=O)N2 [10733/D10] | 22.8% | 2.9%
6 | COc1c(Cl)cc(C=C2C(=O)Nc3ccc(S(=O)(=O)N4CCOCC4)cc32)cc1C(C)(C)C [10732/F09] | 79.7% | 25.6%
7 | COc1ccc(C=C2C(=O)Nc3ccc(CCCl)cc32)cc1C(C)(C)C [10732/G05] | 15.2% | 17.2%
8 | COc1c(Cl)cc(C=C2C(=O)Nc3ccc(CCCl)cc32)cc1C(C)(C)C [10732/G09] | 33.9% | 16.9%
9 | COc1c(C(C)C)cc(C=C2C(=O)Nc3ccc(CCCl)cc32)cc1C(C)C [10732/G03] | 38.1% | 0.8%
10 | COc1c(I)cc(C=C2C(=O)Nc3ccc(S(=O)(=O)N4CCOCC4)cc32)cc1C(C)(C)C [10732/F11] | 75.2% | 21.9%
11 | CNS(=O)(=O)c1ccc2c(c1)C(=Cc1cc(Br)ccc1O)C(=O)N2 [10733/D09] | 38.7% | 9.8%
12 | CNS(=O)(=O)c1ccc2c(c1)C(=Cc1ccc(O)c(C)c1O)C(=O)N2 [10718/D09] | 9.9% | -9.1%
13 | CC(C)(C)c1cc(C=C2C(=O)Nc3ccc(S(=O)(=O)N4CCOCC4)cc32)cc(Cl)c1OCc1ccccc1 [10732/F10] | 65.1% | 14.1%
14 | CC(C)(C)c1cc(C=C2C(=O)Nc3ccc(I)cc32)cc(I)c1OCc1ccccc1 [10733/B02] | 74.6% | -7.4%
15 | CC(C)(C)c1cc(C=C2C(=O)Nc3c(Br)cc(Br)cc32)cc(C(C)(C)C)c1OCc1ccccc1 [10733/A05] | 18.2% | -23.3%
16 | CC(C)(C)c1cc(C=C2C(=O)Nc3ccc(S(=O)(=O)N4CCOCC4)cc32)ccc1OCc1ccccc1 [10732/F06] | 45.7% | 11.6%

Row | SMILES | Met Kinase % Inhibition (MET) | Fik Kinase %Inhibition (FLK-1 receptor)
17 | O=C1Nc2ccc(S(=O)(=O)Nc3ccc(C(F)(F)F)cc3)cc2C1=CC(c1cccs1)C(F)(F)F (stereo not shown) [10732/E02] | 33.3% | 13.1%
18 | CNS(=O)(=O)c1ccc2c(c1)C(=Cc1cc(C(C)(C)C)c(OCc3ccccc3)c(C(C)(C)C)c1)C(=O)N2 [10733/D05] | 25.1% | 16.5%
19 | CNS(=O)(=O)c1ccc2c(c1)C(=Cc1cc(C)c(OC)c(C)c1)C(=O)N2 [10733/D06] | -19.4% | 17.9%
20 | CC(C)(C)c1cc(C=C2C(=O)Nc3ccc(S(=O)(=O)Nc4ccc(C(F)(F)F)cc4)cc32)ccc1OCc1ccccc1 [10732/E06] | -2.1% | 2.8%
21 | CNS(=O)(=O)c1ccc2c(c1)C(=Cc1ccc(O)c(OC)c1[N+](=O)[O-])C(=O)N2 [10733/D11] | 31.6% | 1.0%
22 | COc1c(O)ccc(C=C2C(=O)Nc3c(Br)cc(Br)cc32)c1[N+](=O)[O-] [10733/A11] | 43.5% | 15.0%
23 | COc1c([N+](=O)[O-])cc(C=C2C(=O)Nc3ccc(Br)c(C)c32)cc1C(C)(C)C [10733/C03] | 29.3% | 17.0%
24 | CC(C)(C)c1cc(C=C2C(=O)Nc3ccc(CCCl)cc32)cc(Br)c1OCc1ccccc1 [10732/G08] | 44.7% | 10.0%
25 | COc1cc(Br)cc(C=C2C(=O)Nc3c(Br)cc(Br)cc32)c1O [10733/A08] | 27.2% | -17.1%
26 | CNS(=O)(=O)c1ccc2c(c1)C(=Cc1cc(C)c(OCc3ccccc3)c(C)c1)C(=O)N2 [10733/D07] | -6.8% | -1.4%
27 | COc1c(C(C)(C)C)cc(C=C2C(=O)Nc3ccc(I)cc32)cc1C(C)(C)C [10733/B04] | 56.3% | -3.3%
28 | O=C1Nc2ccc(I)cc2C1=Cc1cc([N+](=O)[O-])ccc1O [10733/B10] | 65.1% | 5.7%
29 | CC(C)c1cc(C=C2C(=O)Nc3ccc(S(=O)(=O)Nc4ccc(C(F)(F)F)cc4)cc32)cc(C(C)C)c1Oc1ccccc1 [10732/E04] | 8.2% | 15.8%
30 | Cc1cc(C=C2C(=O)Nc3ccc(I)cc32)cc(C)c1OCc1ccccc1 [10733/B07] | 73.5% | 1.2%
31 | CNS(=O)(=O)c1ccc2c(c1)C(=Cc1cc(C(C)(C)C)c(OC)c(C(C)(C)C)c1)C(=O)N2 [10733/D04] | 37.7% | 15.5%
32 | COc1c(I)cc(C=C2C(=O)Nc3ccc(CCCl)cc32)cc1C(C)(C)C [10732/G11] | 63.0% | 10.9%
